Measurements from patent publication EP0799174B1, “BIOCIDAL ALCOHOLS, THEIR PRODUCTION AND THEIR USE” (SCHÜLKE & MAYR GMBH, priority 1994, dated 1996).

How the values were obtained:
Assay type in all cases: cell-based
[1] = tested on: Pseudomonas aeruginosa ATCC 15442; experiment: Plate diffusion test (agar diffusion test); settings: aromatic alcohol 1 part, dimethylformamide 6 parts
From the text: (§1) Standard formulation: • aromatic alcohol 1 part • dimethylformamide 6 parts [table] The diameters of the inhibition zones are given in mm.

[2] = tested on: Candida albicans ATCC 10231; experiment: Plate diffusion test (agar diffusion test); settings: aromatic alcohol 1 part, dimethylformamide 6 parts
From the text: as §1

[3] = tested on: Staphylococcus aureus ATCC 6538; experiment: Plate diffusion test (agar diffusion test); settings: aromatic alcohol 1 part, dimethylformamide 6 parts
From the text: as §1

[4] = tested on: Escherichia coli ATCC 11229; experiment: Plate diffusion test (agar diffusion test); settings: aromatic alcohol 1 part, dimethylformamide 6 parts
From the text: as §1

[5] = tested on: P. vulgaris
From the text: as §1

[6] = tested on: Aspergillus niger ATCC 6275; experiment: MIC values, water-insoluble (covered area of plates, solutions in acetone); settings: solution in acetone, 100% means no inhibiting action
From the text: (§2) [table] The size of the covered areas of the plates is given in %; 100% means no inhibiting action.

[7] = tested on: Candida albicans ATCC 10231; experiment: as above; settings: solution in acetone, 100% means no inhibiting action
From the text: as §2

[8] = tested on: Staphylococcus aureus ATCC 6538; experiment: as above; settings: solution in acetone, 100% means no inhibiting action
From the text: as §2

[9] = tested on: Escherichia coli ATCC 11229; experiment: as above; settings: solution in acetone, 100% means no inhibiting action
From the text: as §2

Compound	diameters of the inhibition zones, P. aeruginosa [1]	diameters of the inhibition zones, C. albicans [2]	diameters of the inhibition zones, S. aureus [3]	diameters of the inhibition zones, E. coli [4]	diameters of the inhibition zones, P. vulgaris [5]	size of the covered areas of the plates, A. niger ([6]; concentration 0.25 % by wt.)	size of the covered areas of the plates, A. niger ([6]; concentration 0.50 % by wt.)	size of the covered areas of the plates, A. niger ([6]; concentration 1.00 % by wt.)	size of the covered areas of the plates, C. albicans ([7]; concentration 0.25 % by wt.)	size of the covered areas of the plates, C. albicans ([7]; concentration 0.50 % by wt.)	size of the covered areas of the plates, C. albicans ([7]; concentration 1.00 % by wt.)	size of the covered areas of the plates, S. aureus ([8]; concentration 0.25 % by wt.)	size of the covered areas of the plates, S. aureus ([8]; concentration 0.50 % by wt.)	size of the covered areas of the plates, S. aureus ([8]; concentration 1.00 % by wt.)	size of the covered areas of the plates, E. coli ([9]; concentration 0.25 % by wt.)	size of the covered areas of the plates, E. coli ([9]; concentration 0.50 % by wt.)	size of the covered areas of the plates, E. coli ([9]; concentration 1.00 % by wt.)	other results
CCC(CO)Cc1ccc(C)cc1 (stereo not drawn) [Alcohol 13]	13 mm	19 mm	16 mm	13 mm	14 mm	100%	90%	20%	100%	100%	90%	100%	100%	90%	100%	100%	95%	–
CCC(CO)Cc1ccc(C)c(C)c1 (stereo not drawn) [Alcohol 14]	18 mm	22 mm	18 mm	15 mm	0 mm	90%	80%	10%	100%	100%	20%	100%	90%	30%	100%	100%	100%	size of the covered areas of the plates, A. niger ([6]; concentration 0.125 % by wt.): 100%; size of the covered areas of the plates, C. albicans ([7]; concentration 0.125 % by wt.): 100%; size of the covered areas of the plates, S. aureus ([8]; concentration 0.125 % by wt.): 100%; size of the covered areas of the plates, E. coli ([9]; concentration 0.125 % by wt.): 100%
CCC(CO)Cc1cccc(OC)c1 (stereo not drawn) [Alcohol 15]	15 mm	23 mm	18 mm	18 mm	18 mm	–	100%	90%	–	100%	100%	–	100%	100%	–	100%	100%	–
C=CCC(CO)Cc1ccccc1 (stereo not drawn) [Alcohol 17]	12 mm	17 mm	16 mm	13 mm	13 mm	–	100%	80%	–	100%	100%	–	100%	100%	–	100%	90%	–
CCCCCC(CO)Cc1ccccc1 (stereo not drawn) [Alcohol 18]	0 mm	11 mm	11 mm	0 mm	0 mm	100%	40%	0%	100%	80%	70%	100%	20%	0%	100%	100%	100%	–
